We go through 1 compound from patent publication US20250127905A1, “GLUTARIMIDE COMPOUND AND USE THEREOF” (MEDSHINE DISCOVERY INC., priority 2021, published 2025).

Experiment [1] concerns imiquimod-induced psoriasis model. As to the kind of experiment: Imiquimod-induced psoriasis model in mice: pathological score, ear thickness, spleen weight. The following applies: Mean±SEM; for Spleen weight: D7; for Increased ear thickness: D7 relative to D0. The class given is in vivo, BALB/c mice. How it is done:
It is to evaluate the efficacy of compounds on imiquimod-induced psoriasis model in BALB/c mice.
Animals: BALB/c mice, male, 18 to 20 g; source: Zhejiang Vital River Laboratory Animal Technology Co., Ltd.
(§1) Experimental grouping and administration: After acclimatization, […] male BALB/c mice were randomly divided into 5 groups (n=6 or 9) according to body weight: normal (control, G1) group, vehicle (model, G2) group, test compound low-dose (30 mg/kg, BID, G3) group, test compound medium-dose (100 mg/kg, BID, G4) group, and test compound high-dose (300 mg/kg, BID, G5) group.
(§2) Model induction: the dorsal skin of the experimental animals was shaved (surface area=2×3 cm) before the application of imiquimod. In addition to the normal group, imiquimod cream was topically applied to the shaved back (47 mg) and left ear (15 mg) at 62 mg/mouse per day for 8 consecutive days (from D0 to D7). For administration groups (G2 to G5), the vehicle or test compound was intragastrically administered twice a day from D-1 to D6 and only once on D7. The administration volume was 10 mL/kg in each group. (Note: It is specified that the first application of imiquimod is D0; since it is administered one day earlier, the first administration is D-1).
Clinical score: Clinical disease scores for erythema, scale, and thickness were measured daily according to a grading system, and cumulative scores were calculated.
Ear thickness: The left ear thickness was measured on D0, D3, D5, and D7 for a total of 4 times, and the increased ear thickness on D7 relative to D0 was calculated.
Spleen weight: The spleen weight was measured after the animals were sacrificed on D7.
(§3) Experimental data were expressed as Mean±SEM; data were statistically analyzed using one-way ANOVA in GraphPad Prism software, and p<0.05 was considered a significant difference between the two groups.

Experiment [2] relates to interleukin 17, interleukin 6, and tumor necrosis factor α. In words: Imiquimod-induced psoriasis model in mice: relative levels of skin inflammatory factors (fluorescence quantitative PCR). Format: in vivo, BALB/c mice. Conditions: lesion skin D7, Mean±SEM. How it is done:
as §1, §2
Inflammatory factors: The skin was taken from the lesion site after the animals were sacrificed on D7, and the relative levels of interleukin 17, interleukin 6, and tumor necrosis factor α were detected using fluorescence quantitative PCR.
as §3

For the compound `O=C1CCC(c2noc3c(NC(=O)CN4CCN(C[C@H]5CC[C@H](n6cc(NC(=O)c7cnn8ccc(N9C[C@H]%10C[C@@H]9CO%10)nc78)c(C(F)F)n6)CC5)CC4)cccc23)C(=O)N1` (stereo partly drawn) [WX015], in experiment [1] (30 mg/kg BID intragastric), the Spleen weight is reported as 175.78 ± 13.01 mg, the Increased ear thickness was 208 ± 6 µm and the Pathological score amounted to 20.2 ± 0.89. In experiment [1] (100 mg/kg BID intragastric), this compound gave a Spleen weight of 153.78 ± 11.67 mg, an Increased ear thickness of 217 ± 5.67 µm and a Pathological score of 20.5 ± 1.18. In experiment [1] (300 mg/kg BID intragastric), this compound showed a Spleen weight of 132.78 ± 3.94 mg, an Increased ear thickness of 185 ± 2.68 µm and a Pathological score of 19.0 ± 0.55. In experiment [2] (30 mg/kg BID), the “Interleukin 6 relative level” value is 8.0 ± 3.3, the “Interleukin 17 relative level” value amounted to 102.4 ± 36.9 and the “Tumor necrosis factor α relative level” value was found to be 5.2 ± 0.7. Further, in experiment [2] (100 mg/kg BID), the “Interleukin 6 relative level” value was determined as 13.8 ± 2.3, the “Interleukin 17 relative level” value is 113.1 ± 49.4 and the “Tumor necrosis factor α relative level” value was 5.2 ± 0.8. Besides, in experiment [2] (300 mg/kg BID), the “Interleukin 6 relative level” value was found to be 4.7 ± 2.0, the “Interleukin 17 relative level” value was found to be 97.3 ± 35.3 and the “Tumor necrosis factor α relative level” value came to 3.7 ± 0.6.
